Measurements as given in the NIST ThermoML archive (doi:10.1021/acs.jced.7b00195).

Settings: Gas, Burnett expansion method

CCF [fluoroethane]
Settings	mass density [kg/m3]
278.38 K, 201.28 kPa	4.281
278.38 K, 432.22 kPa	9.679
278.39 K, 297.17 kPa	6.437
283.26 K, 303.56 kPa	6.463
283.26 K, 442.81 kPa	9.718
283.27 K, 205.41 kPa	4.298
288.2 K, 209.64 kPa	4.316
288.21 K, 309.96 kPa	6.489
288.21 K, 452.92 kPa	9.758
293.09 K, 213.69 kPa	4.313
293.09 K, 316.32 kPa	6.485
293.1 K, 143.41 kPa	2.868
293.1 K, 462.98 kPa	9.751
298.65 K, 323.48 kPa	6.515
298.65 K, 682.94 kPa	14.731
298.66 K, 146.61 kPa	2.881
298.66 K, 218.72 kPa	4.333
298.66 K, 474.3 kPa	9.797
303.31 K, 149.42 kPa	2.894
303.31 K, 222.77 kPa	4.351
303.31 K, 329.55 kPa	6.543
303.31 K, 697.8 kPa	14.795
303.32 K, 483.63 kPa	9.838
308.96 K, 227.65 kPa	4.351
308.96 K, 336.88 kPa	6.542
308.97 K, 494.66 kPa	9.837
308.97 K, 715.6 kPa	14.793
308.98 K, 152.32 kPa	2.893
313.8 K, 155.2 kPa	2.907
313.8 K, 343.12 kPa	6.572
313.8 K, 1036.8 kPa	22.346
313.81 K, 231.58 kPa	4.371
313.81 K, 504.31 kPa	9.882
313.81 K, 730.5 kPa	14.86
318.66 K, 513.87 kPa	9.903
318.67 K, 158.08 kPa	2.912
318.67 K, 235.35 kPa	4.379
318.67 K, 349.39 kPa	6.585
318.67 K, 745.44 kPa	14.89
318.67 K, 1060.9 kPa	22.39
323.51 K, 355.59 kPa	6.601
323.51 K, 760.32 kPa	14.926
323.51 K, 1084.6 kPa	22.444
323.52 K, 160.85 kPa	2.919
323.52 K, 239.62 kPa	4.39
323.52 K, 523.39 kPa	9.926
328.42 K, 243.93 kPa	4.403
328.42 K, 532.98 kPa	9.955
328.42 K, 775.13 kPa	14.969
328.42 K, 1108.3 kPa	22.509
328.42 K, 1539.5 kPa	33.847
328.43 K, 163.8 kPa	2.928
328.43 K, 361.91 kPa	6.62
333.29 K, 541.96 kPa	9.995
333.3 K, 248.18 kPa	4.42
333.3 K, 368.16 kPa	6.647
333.3 K, 789.86 kPa	15.029
333.3 K, 1131.5 kPa	22.599
333.31 K, 166.7 kPa	2.94
338.15 K, 252.41 kPa	4.426
338.15 K, 374.3 kPa	6.655
338.15 K, 551.38 kPa	10.008
338.15 K, 1614.5 kPa	34.027
338.16 K, 169.6 kPa	2.943
338.16 K, 804.44 kPa	15.048
338.16 K, 1154.5 kPa	22.629
343.01 K, 256.69 kPa	4.428
343.01 K, 380.56 kPa	6.659
343.01 K, 818.91 kPa	15.056
343.02 K, 560.82 kPa	10.013
343.02 K, 1177.4 kPa	22.64
343.02 K, 1651.3 kPa	34.043
343.02 K, 2227.5 kPa	51.191
343.03 K, 172.53 kPa	2.945
347.85 K, 175.51 kPa	2.953
347.85 K, 570.22 kPa	10.041
347.85 K, 833.34 kPa	15.099
347.85 K, 1687.6 kPa	34.14
347.85 K, 2287.3 kPa	51.336
347.86 K, 260.96 kPa	4.441
347.86 K, 386.83 kPa	6.677
347.86 K, 1200 kPa	22.704
352.74 K, 265.25 kPa	4.438
352.74 K, 393.24 kPa	6.674
352.74 K, 579.94 kPa	10.036
352.74 K, 1724 kPa	34.121
352.74 K, 2347.1 kPa	51.308
352.74 K, 3018.7 kPa	77.15
352.75 K, 178.77 kPa	2.951
352.75 K, 847.82 kPa	15.09
352.75 K, 1222.3 kPa	22.691
358.61 K, 248.43 kPa	4.077
358.61 K, 544.42 kPa	9.219
358.61 K, 1159 kPa	20.845
358.61 K, 1648.3 kPa	31.345
358.61 K, 2274.6 kPa	47.133
358.62 K, 368.4 kPa	6.131
358.62 K, 799.33 kPa	13.862
363.36 K, 252.39 kPa	4.076
363.36 K, 553.08 kPa	9.217
363.36 K, 2325.7 kPa	47.122
363.36 K, 3082.3 kPa	70.859
363.37 K, 374.25 kPa	6.129
363.37 K, 811.8 kPa	13.859
363.37 K, 1178.9 kPa	20.84
363.37 K, 1680 kPa	31.337
368.26 K, 256.54 kPa	4.087
368.26 K, 380.26 kPa	6.145
368.26 K, 561.93 kPa	9.24
368.26 K, 825.1 kPa	13.895
368.26 K, 1199.4 kPa	20.894
368.26 K, 1712.2 kPa	31.418
368.26 K, 2378.2 kPa	47.243
368.27 K, 3165.9 kPa	71.038
373.13 K, 838.52 kPa	13.867
373.14 K, 260.73 kPa	4.078
373.14 K, 386.27 kPa	6.133
373.14 K, 1219.8 kPa	20.851
373.14 K, 1744.1 kPa	31.354
373.14 K, 2430.1 kPa	47.146
373.14 K, 3250.9 kPa	70.894
373.14 K, 4091.8 kPa	106.604
373.15 K, 570.74 kPa	9.221
378.01 K, 264.55 kPa	4.087
378.01 K, 391.92 kPa	6.145
378.01 K, 851.98 kPa	13.896
378.01 K, 1240 kPa	20.895
378.01 K, 1776.1 kPa	31.42
378.01 K, 2481.6 kPa	47.245
378.01 K, 3335.4 kPa	71.042
378.02 K, 579.55 kPa	9.241
378.02 K, 4235.2 kPa	106.825
